Measurements published in ChEMBL document CHEMBL3232917, “Schiff's base derivatives bearing nitroimidazole and quinoline nuclei: new class of anticancer agents and potential EGFR tyrosine kinase inhibitors” (Bioorg Med Chem Lett, 2014).

Key:
[1] = biological target: Receptor tyrosine-protein kinase erbB-2 (Homo sapiens) (UniProt P04626); assay: Inhibition of autophosphorylation of human HER2 cytoplasmic domain (amino acids 676 to 1245) (unknown origin) expressed in Sf9 cells after 1 hr by time-resolved fluorometry
Chain of Receptor tyrosine-protein kinase erbB-2 (Homo sapiens) (P04626 whole entry, looked up, the tested form may be a part): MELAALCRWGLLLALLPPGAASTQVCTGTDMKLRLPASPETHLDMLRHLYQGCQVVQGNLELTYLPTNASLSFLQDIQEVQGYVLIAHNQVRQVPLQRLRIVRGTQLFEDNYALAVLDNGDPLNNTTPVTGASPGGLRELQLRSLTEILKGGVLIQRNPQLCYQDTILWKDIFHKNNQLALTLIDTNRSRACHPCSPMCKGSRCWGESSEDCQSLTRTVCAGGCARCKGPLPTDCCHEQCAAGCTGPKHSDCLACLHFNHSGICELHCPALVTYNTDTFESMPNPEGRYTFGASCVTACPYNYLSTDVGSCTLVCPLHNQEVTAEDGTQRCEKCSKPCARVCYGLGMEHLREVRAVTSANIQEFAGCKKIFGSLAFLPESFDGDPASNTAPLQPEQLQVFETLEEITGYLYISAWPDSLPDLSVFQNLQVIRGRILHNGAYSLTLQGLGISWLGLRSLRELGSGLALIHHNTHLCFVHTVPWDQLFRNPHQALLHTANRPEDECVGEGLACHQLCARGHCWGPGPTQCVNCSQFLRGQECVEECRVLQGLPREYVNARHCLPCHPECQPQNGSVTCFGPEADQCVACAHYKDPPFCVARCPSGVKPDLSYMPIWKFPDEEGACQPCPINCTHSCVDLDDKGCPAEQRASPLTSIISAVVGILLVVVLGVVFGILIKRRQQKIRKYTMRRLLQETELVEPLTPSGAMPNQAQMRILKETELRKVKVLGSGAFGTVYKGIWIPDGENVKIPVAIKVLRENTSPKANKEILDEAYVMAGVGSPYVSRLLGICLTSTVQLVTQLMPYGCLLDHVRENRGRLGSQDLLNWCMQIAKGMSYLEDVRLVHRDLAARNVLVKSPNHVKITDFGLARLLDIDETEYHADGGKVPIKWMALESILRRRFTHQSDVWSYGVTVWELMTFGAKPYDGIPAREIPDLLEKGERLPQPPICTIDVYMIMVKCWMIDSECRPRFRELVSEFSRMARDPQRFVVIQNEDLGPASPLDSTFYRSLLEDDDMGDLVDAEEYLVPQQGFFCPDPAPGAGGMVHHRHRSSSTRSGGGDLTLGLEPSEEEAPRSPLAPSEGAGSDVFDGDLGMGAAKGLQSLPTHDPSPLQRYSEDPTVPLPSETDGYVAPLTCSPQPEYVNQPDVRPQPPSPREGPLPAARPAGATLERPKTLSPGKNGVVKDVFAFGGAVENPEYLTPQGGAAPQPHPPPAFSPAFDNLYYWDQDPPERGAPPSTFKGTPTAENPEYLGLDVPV

HepG2 = assay: cells; details: Homo sapiens, HepG2, 48 h
A549 = assay: cells; details: Homo sapiens, A549, 48 h
[2] = biological target: Epidermal growth factor receptor (Homo sapiens, UniProt P00533); assay: Inhibition of autophosphorylation of EGFR cytoplasmic domain (amino acids 645 to 1186) (unknown origin) expressed in Sf9 cells after 1 hr by time-resolved fluorometry
Chain of Epidermal growth factor receptor (P00533 whole entry, the tested form may be a part): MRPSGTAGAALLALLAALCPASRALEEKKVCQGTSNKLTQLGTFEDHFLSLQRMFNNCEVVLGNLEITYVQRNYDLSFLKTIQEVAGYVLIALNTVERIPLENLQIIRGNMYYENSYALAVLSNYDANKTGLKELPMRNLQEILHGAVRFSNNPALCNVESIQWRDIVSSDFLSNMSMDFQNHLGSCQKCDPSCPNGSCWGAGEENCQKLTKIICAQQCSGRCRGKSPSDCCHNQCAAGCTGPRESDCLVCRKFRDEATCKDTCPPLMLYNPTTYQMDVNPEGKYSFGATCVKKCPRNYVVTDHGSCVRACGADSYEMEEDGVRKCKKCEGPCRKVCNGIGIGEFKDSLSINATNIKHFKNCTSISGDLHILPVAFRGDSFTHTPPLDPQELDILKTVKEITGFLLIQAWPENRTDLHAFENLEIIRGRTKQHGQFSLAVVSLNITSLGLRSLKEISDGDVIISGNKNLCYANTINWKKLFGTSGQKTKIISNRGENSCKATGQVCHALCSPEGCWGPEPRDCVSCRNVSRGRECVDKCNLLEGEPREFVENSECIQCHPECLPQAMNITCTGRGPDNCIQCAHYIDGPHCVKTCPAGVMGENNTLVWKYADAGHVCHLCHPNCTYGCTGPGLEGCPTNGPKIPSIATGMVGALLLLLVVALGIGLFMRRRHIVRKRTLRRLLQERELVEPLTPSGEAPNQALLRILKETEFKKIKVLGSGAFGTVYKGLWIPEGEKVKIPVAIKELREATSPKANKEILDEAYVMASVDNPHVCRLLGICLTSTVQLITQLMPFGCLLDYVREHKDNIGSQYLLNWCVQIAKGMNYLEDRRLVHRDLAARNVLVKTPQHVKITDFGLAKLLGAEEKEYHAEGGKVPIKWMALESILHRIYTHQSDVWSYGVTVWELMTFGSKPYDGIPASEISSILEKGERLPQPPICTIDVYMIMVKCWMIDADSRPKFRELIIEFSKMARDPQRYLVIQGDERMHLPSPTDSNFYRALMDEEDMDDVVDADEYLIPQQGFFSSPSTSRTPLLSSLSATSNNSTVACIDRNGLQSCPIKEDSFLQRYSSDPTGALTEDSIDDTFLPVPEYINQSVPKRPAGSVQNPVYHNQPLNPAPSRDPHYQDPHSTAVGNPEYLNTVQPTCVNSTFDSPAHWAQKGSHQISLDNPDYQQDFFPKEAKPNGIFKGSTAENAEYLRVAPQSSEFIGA

| SMILES | IC50 [1] | IC50 (HepG2) | IC50 (A549) | IC50 [2] |
| --- | --- | --- | --- | --- |
| Cc1ncc([N+](=O)[O-])n1CC(=O)N/N=C/c1cc2ccccc2nc1Oc1ccc(F)cc1 | 0.37 µM | 0.18 µM | 3120 nM | 21 µM |
| Cc1ccc2nc(Oc3ccc(Cl)cc3)c(/C=N/NC(=O)Cn3c([N+](=O)[O-])cnc3C)cc2c1 | 19 µM | 3.18 µM | 1230 nM | 8.66 µM |
| Cc1ccc2nc(Oc3ccccc3)c(/C=N/NC(=O)Cn3c([N+](=O)[O-])cnc3C)cc2c1 | 1.58 µM | 15.1 µM | 7180 nM | 3.17 µM |
| Cc1ccc2nc(Oc3ccc(F)cc3)c(/C=N/NC(=O)Cn3c([N+](=O)[O-])cnc3C)cc2c1 | 0.43 µM | 1.56 µM | 190 nM | 0.42 µM |
| Cc1ccc(Oc2nc3ccc(C)cc3cc2/C=N/NC(=O)Cn2c([N+](=O)[O-])cnc2C)cc1 | 17 µM | 21.9 µM | 1190 nM | 0.18 µM |

More lines, in order of falling IC50 (HepG2), values ahead:

| IC50 [1] | IC50 (HepG2) | IC50 (A549) | IC50 [2] | SMILES |
| --- | --- | --- | --- | --- |
| 7.67 µM | 27.1 µM | 21500 nM | 23.1 µM | Cc1ccc(Oc2nc3ccccc3cc2/C=N/NC(=O)Cn2c([N+](=O)[O-])cnc2C)cc1 |
|  | 13.3 µM | 9450 nM |  | Cc1ncc([N+](=O)[O-])n1CC(=O)N/N=C/c1cc2ccccc2nc1Oc1ccccc1 |
| 12 µM | 4.13 µM | 920 nM | 0.27 µM | COc1ccc(Oc2nc3ccccc3cc2/C=N/NC(=O)Cn2c([N+](=O)[O-])cnc2C)cc1 |
| 2.18 µM | 3.15 µM | 160 nM | 0.12 µM | COc1ccc(Oc2nc3ccc(C)cc3cc2/C=N/NC(=O)Cn2c([N+](=O)[O-])cnc2C)cc1 |
| 4.1 µM | 0.22 µM | 9030 nM | 5.12 µM | Cc1ncc([N+](=O)[O-])n1CC(=O)N/N=C/c1cc2ccccc2nc1Oc1ccc(Cl)cc1 |
